Reference: patent EP2718307B1, “BETA-HAIRPIN PEPTIDOMIMETICS AS CXC4 ANTAGONISTS” (Polyphor AG, priority 2011, dated 2012)
Where two headings read alike, the source gives them in different places. Bridge positions count the residues as written; N and C are the ends. Square brackets hold non-standard residues; d marks the D form. Peptide text beside a SMILES is read from it. Lys(iPr) = CC(C)NCCCC[C@H](N)C(=O)O; Orn(iPr) = CC(C)NCCC[C@H](N)C(=O)O

Legend:
[1] = system: human red blood cells (hRBC); assay: Hemolysis; type: cell-based
Experimental: The peptides were tested for their hemolytic activity against human red blood cells (hRBC). Fresh hRBC were washed four times with phosphate buffered saline (PBS) and centrifuged for 10 min at 3000 x g. Compounds (100 µM) were incubated with 20% hRBC (v/v) for 1 h at 37°C and shaking at 300 rpm. The final erythrocyte concentration was approximately 0.9 x 10^9 cells/mL. A value of 0% and 100% cell lysis, respectively, was determined by incubation of hRBC in the presence of PBS containing 0.001% acetic acid and 2.5% Triton X-100 in H2O respectively. The samples were centrifuged, the supernatants were 8-fold diluted in PBS buffer and the optical densities (OD) were measured at 540 nm. The 100% lyses value (OD540H2O) gave an OD540 of approximately 0.5-1.0. Percent hemolysis was calculated as follows: (OD540peptide/OD540H2O) x 100%. [formula]

[2] = Plasma stability, human plasma; type: in vitro ADME
Experimental: The stability of the peptides in human and mouse plasma was determined by applying the following method: 346.5 µL/deep well of freshly thawed human plasma (Basler Blutspende-dienst) and mouse plasma (Harlan Sera-Lab, UK), respectively, were spiked with 3.5 µL/well of compound dissolved in DMSO/H2O (90/10 [v/v], 1 mM, triplicate) and incubated at 37° C. At t = 0, 15, 30, 60, 120, 240 and 1440 min aliquots of 50 µL were transferred to filtration plate wells containing 150 µL/well of 2% formic acid in acetonitrile. Following shaking for 2 min the occurred suspensions were filtrated by vacuum. 100 µL of each filtrate were transferred to a propylene microtiter plate and dried under N2. The residual solids were reconstituted by adding 100 µL/well of water/acetonitrile, 95/5 (v/v) + 0.2% formic acid and analyzed by LC/MS as follows: Column: Waters, XBridge C18, mobile phases: (A) water + 0.1% formic acid and (B) acetonitrile/water, 95/5 (v/v) + 0.1% formic acid, gradient: 5%-100% (B) in 1.8 minutes, electrospray ionization, MRM detection (triple quadrupole). The peak areas were determined and triplicate values are averaged. The stability is expressed in percent of the initial value at t = 0. (tx/t0 x 100). By using the TREND function of EXCEL (Microsoft Office 2003) T1/2 were determined.

[3] = Plasma protein binding (ultrafiltration); type: in vitro ADME, human
Experimental: 495 µL aliquots of human plasma (Basler Blutspendedienst) as well as 495 µL aliquots of PBS were placed in individual deepwells of a polypropylene plate (Greiner) and spiked each with 5 µL of 1 mM solutions of peptides in 90% DMSO. After shaking the plate for 2 min at 600 rpm 150 µL aliquots of the plasma/peptide mixtures were transferred in triplicates to the polypropylene filter plate (10 kDa, Millipore) whereas 150 µL aliquots of the PBS/peptide mixtures were transferred either to the individual wells of the filter plate (filtered controls) or directly into the individual wells of the receiving plate (Greiner) (non-filtered controls). The plate sandwich consisting of filter and receiving plate was incubated for 1 h at 37°C and subsequently centrifuged at 3220 g for 2h at 15 °C. The filtrates in the receiving plate were analysed by LC/MS as follows: Column: Waters, XBridge C18, mobile phases: (A) water + 0.1% formic acid and (B) acetonitrile/water, 95/5 (v/v) + 0.1% formic acid, gradient: 5%-100% (B) in 1.8 min, electrospray ionization, MRM detection (triple quadrupole). The peak areas were determined and triplicate values are averaged. The binding is expressed in percent of the filtered and non-filtered controls by 100-(100x T1h/Tctr). Finally the average of these values is calculated.

[4] = Drug loading calculations via maintenance dose rate (rate of infusion); conditions: CLiv-mouse values scaled by 0.127 (GFR human/GFR mouse)
Experimental: The drug load for an implant comprising a peptide of the invention was calculated following the basic principles in pharmacokinetics (see also J. Gabrielsson, D. Weiner, "Pharmacokinetics and Pharmaco-dynamics Data Analysis: Concepts and Applications", 4th edition, Swedish Pharmaceutical Press, Stockholm, Sweden, 2006) whereby the maintainance dose rate (rate of infusion, Rin) can be defined as the rate at which a drug is to be administered to reach a steady state of a certain dose in the plasma. The maintainance dose rate can be expressed using the correlation Rin [g/(h*kg)] = CLiv[L/(h*kg)] x Css,eff [g/L], wherein CLiv is the clearance (i.v. - admin.) and Css,eff the effective concentration of the drug in the plasma at steady state considering an efficacy margin A: Css,eff [g/L] = A x (IC50/fu) x MW [(mol/L)*(g/mol)]. Therefore, the total amount of a drug loaded into an implant providing for a constant effective concentration of that drug in the plasma for a certain period of time in a subject of a certain body weight can be calculated by applying the following correlation: Drugload [g/subject] = Rin [g/(h*kg)] x duration[h] x BW [kg/subject]. [formula]
Further pre-conditions are an efficacy margin of A = 3, a study duration of 672 h (28 days) and a body weight of a human suject of 70 kg. The glomerular filtration rate (GFR) which mainly influences the clearance of the peptides is highly dependent on the species. In general, the GFR of humans is averaged to be 107 mL/(h*kg) compared to the GFR of mouse being 840 mL/(h*kg). Therefore, the CLiv-mouse values indicated in Table 5b were allometrically scaled by 107 mL/(h*kg)/840 mL/(h*kg) = 0.127 before employed in the above described correlations.

SMILES | Hemolysis at 100 µM ([1]; red cells of human, 1 h, 100) | Plasma stability human pl. T1/2 [2] | Plasma stability human pl. cpd left at 1440 min [2] | Plasma protein binding [3] | CLiv, human (allometric scaled) [4] | Hemolysis at 100 µM ([1]; 100 µM, 20% hRBC, 1 h at 37°C) | Plasma stability human pl. T1/2 ([2]; human plasma, 37° C, last time point 1440 min)
COc1ccc(C[C@H]2NC(=O)[C@H](C)NC(=O)[C@H](CO)NC(=O)[C@@H]3CSSC[C@H](NC(=O)[C@H](Cc4ccc(O)cc4)NC(=O)[C@H](CCCNC(=N)N)NC(=O)[C@H](CCCNC(C)C)NC2=O)C(=O)N[C@@H](Cc2ccc(O)cc2)C(=O)N[C@@H](CCC(N)=O)C(=O)N[C@@H](CCCCNC(C)C)C(=O)N2CCC[C@@H]2C(=O)N2CCC[C@H]2C(=O)N[C@@H](Cc2ccc(O)cc2)C(=O)N[C@@H](Cc2c[nH]cn2)C(=O)N[C@@H](C)C(=O)N3)cc1 [Ex. 4, cyclo(-Tyr^1-His^2-Ala^3-Cys^4-Ser^5-Ala^6-^DTyr(Me)^7-Orn(iPr)^8-Arg^9-Tyr^10-Cys^11-Tyr^12-Gln^13-Lys(iPr)^14-^DPro^15-Pro^16-), disulfide bond between Cys^4 and Cys^11] (cyclo(YHACSA[dY](Me)[Orn(iPr)]RYCYQ[Lys(iPr)][dP]P); disulfide 4-11) | 0% | 24 h | 94% | 56% | 1.57 mL/min/kg | – | –
COc1ccc(C[C@@H]2NC(=O)[C@H](Cc3c[nH]cn3)NC(=O)[C@H](Cc3ccc(O)cc3)NC(=O)[C@@H]3CCCN3C(=O)[C@H]3CCCN3C(=O)[C@H](CCCCNC(C)C)NC(=O)[C@H](CCC(N)=O)NC(=O)[C@H](Cc3ccc(O)cc3)NC(=O)[C@@H]3CSSC[C@H](NC2=O)C(=O)N[C@@H](CO)C(=O)N[C@@H](C)C(=O)N[C@H](Cc2ccc(OC)cc2)C(=O)N[C@@H](CCCNC(C)C)C(=O)N[C@@H](CCCNC(=N)N)C(=O)N[C@@H](Cc2ccc(O)cc2)C(=O)N3)cc1 [Ex. 6, cyclo(-Tyr^1-His^2-Tyr(Me)^3-Cys^4-Ser^5-Ala^6-^DTyr(Me)^7-Orn(iPr)^8-Arg^9-Tyr^10-Cys^11-Tyr^12-Gln^13-Lys(iPr)^14-^DPro^15-Pro^16-), disulfide bond between Cys^4 and Cys^11] (cyclo(YHY(Me)CSA[dY](Me)[Orn(iPr)]RYCYQ[Lys(iPr)][dP]P); disulfide 4-11) | – | – | – | – | 5.18 mL/min/kg | 2% | 24 h
CC(C)NCCCC[C@@H]1NC(=O)[C@H](CCC(N)=O)NC(=O)[C@H](Cc2ccc(O)cc2)NC(=O)[C@@H]2CSSC[C@H](NC(=O)[C@H](Cc3ccc(O)cc3)NC(=O)[C@H](Cc3c[nH]cn3)NC(=O)[C@H](Cc3ccc(O)cc3)NC(=O)[C@@H]3CCCN3C(=O)[C@H]3CCCN3C1=O)C(=O)N[C@@H](CO)C(=O)N[C@@H](C)C(=O)N1CCC[C@@H]1C(=O)N[C@@H](CCCNC(C)C)C(=O)N[C@@H](CCCNC(=N)N)C(=O)N[C@@H](Cc1ccc(O)cc1)C(=O)N2 [Ex. 1, cyclo(-Tyr^1-His^2-Tyr^3-Cys^4-Ser^5-Ala^6-^DPro^7-Orn(iPr)^8-Arg^9-Tyr^10-Cys^11-Tyr^12-Gln^13-Lys(iPr)^14-^DPro^15-Pro^16-), disulfide bond between Cys^4 and Cys^11] (cyclo(YHYCSA[dP][Orn(iPr)]RYCYQ[Lys(iPr)][dP]P); disulfide 4-11) | 1.0% | 24 h | 77% | 30% | 1.83 mL/min/kg | – | –
COc1ccc(C[C@@H]2NC(=O)[C@H](Cc3c[nH]cn3)NC(=O)[C@H](Cc3ccc(O)cc3)NC(=O)[C@@H]3CCCN3C(=O)[C@H]3CCCN3C(=O)[C@H](CCCCNC(C)C)NC(=O)[C@H](CCC(N)=O)NC(=O)[C@H](Cc3ccc(O)cc3)NC(=O)[C@@H]3CSSC[C@H](NC2=O)C(=O)N[C@@H](CO)C(=O)N[C@@H](C)C(=O)N2CCC[C@@H]2C(=O)N[C@@H](CCCNC(C)C)C(=O)N[C@@H](CCCNC(=N)N)C(=O)N[C@@H](Cc2ccc(O)cc2)C(=O)N3)cc1 [Ex. 2, cyclo(-Tyr^1-His^2-Tyr(Me)^3-Cys^4-Ser^5-Ala^6-^DPro^7-Orn(iPr)^8-Arg^9-Tyr^10-Cys^11-Tyr^12-Gln^13-Lys(iPr)^14-^DPro^15-Pro^16-), disulfide bond between Cys^4 and Cys^11] (cyclo(YHY(Me)CSA[dP][Orn(iPr)]RYCYQ[Lys(iPr)][dP]P); disulfide 4-11) | 1.0% | 24 h | 100% | 48% | 1.4 mL/min/kg | – | –
